Measured values published in ChEMBL document CHEMBL3352442, “Synthesis and structure-activity relationships study of dithiolethiones as inducers of glutathione in the SH-SY5Y neuroblastoma cell line” (Bioorg Med Chem Lett, 2014).
Active and inactive are the calls of the source. The rule behind the calls is not given here.

Experiments:
SH-SY5Y [1] = assay: Induction of glutathione in human SH-SY5Y cells at 100 uM incubated for 24 hrs by GSH/GSSG Glo assay; type: functional
[2] = (§1) Neuroprotection against 25 uM 6-hydroxydopamine-induced neurotoxicity in human SH-SY5Y cells assessed as cell viability at 100 uM pre-incubated for 24 hrs before 6-hydroxydopamine challenge; type: functional
[3] = Neuroprotection against 50 uM 6-hydroxydopamine-induced neurotoxicity in human SH-SY5Y cells assessed as cell viability at 100 uM pre-incubated for 24 hrs before 6-hydroxydopamine challenge; type: functional
[4] = Toxicity against human SH-SY5Y cells at 100 uM incubated for 24 hrs; type: cell-based
SH-SY5Y [5] = assay: as §1; type: functional

SMILES	Activity (SH-SY5Y [1])	Activity [2]	Activity [3]	Activity [4]	Activity (SH-SY5Y [5])
S=c1ccss1 [DITHIOLETHIONE]	215%	52%	47%	Non-toxic	–
FC(F)(F)Cc1cssc1=S	Active	–	–	–	–
CCc1cc(=S)ss1	Active	–	–	–	–
S=c1sscc1-c1ccc(Cl)cc1	Active	–	–	–	–
COc1ccc(-c2cc(=S)ss2)cc1	inactive	–	–	–	–
Oc1ccc(-c2cc(=S)ss2)cc1	inactive	–	–	–	–
S=c1ssc2c1CCCC2	98%	–	–	–	–
S=c1cc(-c2ccc(Cl)cc2)ss1	inactive	–	–	–	inactive
S=c1sscc1-c1ccccc1	Active	–	–	–	–
Cc1ssc(=S)c1Cl	175%	52%	33%	Non-toxic	–
COc1ccc(-c2cssc2=S)cc1	Active	–	–	–	–
S=c1ssc2c1CCC2	183%	41%	22%	Non-toxic	–
S=c1cc(C2CC2)ss1	Active	–	–	–	–
